Test results from patent US12679822B2, “Alkenyl pyrimidine compound, preparation method therefor, and application thereof” (Hongyun Biotech Co., Ltd., priority 2020, dated 2026).

Experiments:
Format in all cases: cell-based
[1] = target: BaF3 cell lines stably transfected with kinase EGFR L858R/T790M/C797S (Homo sapiens, UniProt P00533, T790M/C797S/L858R, cells depend on it); test: Growth inhibition of BaF3 cell line stably transfected with kinase EGFR L858R/T790M/C797S (MTS); conditions: 48 h, read-out: growth inhibitory activity IC50, L858R/T790M/C797S
Procedure, shortened: (§1)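 Growth inhibition is measured by MTS conversion (OD 490 nm) following 48 h treatment at concentrations up to 10 μM, diluted by ⅓ over 8 points. Each condition runs in duplicate with 0.1% DMSO negative and cell-free blank controls.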

[2] = target: BaF3 cell lines stably transfected with kinase EGFR Del/T790M (Homo sapiens, UniProt P00533, T790M, cells depend on it, form not given); test: Growth inhibition of BaF3 cell line stably transfected with kinase EGFR Del/T790M (MTS); conditions: 48 h, read-out: growth inhibitory activity IC50, Del/T790M
Procedure, shortened: as §1

[3] = target: BaF3 cell lines stably transfected with kinase EGFR L858R (Homo sapiens, UniProt P00533, L858R, cells depend on it); test: Growth inhibition of BaF3 cell line stably transfected with kinase EGFR L858R (MTS); conditions: 48 h, read-out: growth inhibitory activity IC50, L858R
Procedure, shortened: as §1

[4] = target: BaF3 cell lines stably transfected with kinase EGFR L858R/T790M (Homo sapiens, UniProt P00533, T790M/L858R, cells depend on it); test: Growth inhibition of BaF3 cell line stably transfected with kinase EGFR L858R/T790M (MTS); conditions: 48 h, read-out: growth inhibitory activity IC50, L858R/T790M
Procedure, shortened: as §1

[5] = target: BaF3 cell lines stably transfected with kinase EGFR Del (Homo sapiens, UniProt P00533, cells depend on it, form not given); test: Growth inhibition of BaF3 cell line stably transfected with kinase EGFR Del (MTS); conditions: 48 h, read-out: growth inhibitory activity IC50, Del
Procedure, shortened: as §1

[6] = target: BaF3 cell lines stably transfected with kinase EGFR Del/T790M/C797S (Homo sapiens, UniProt P00533, T790M/C797S, cells depend on it, form not given); test: Growth inhibition of BaF3 cell line stably transfected with kinase EGFR Del/T790M/C797S (MTS); conditions: 48 h, read-out: growth inhibitory activity IC50, Del/T790M/C797S
Procedure, shortened: as §1

BaF3 cell lines stably transfected with kinase EGFR Del/T790M/C797S, sequence (P00533 with tags, fused parts or gaps DEL746-750/T790M/C797S, form open): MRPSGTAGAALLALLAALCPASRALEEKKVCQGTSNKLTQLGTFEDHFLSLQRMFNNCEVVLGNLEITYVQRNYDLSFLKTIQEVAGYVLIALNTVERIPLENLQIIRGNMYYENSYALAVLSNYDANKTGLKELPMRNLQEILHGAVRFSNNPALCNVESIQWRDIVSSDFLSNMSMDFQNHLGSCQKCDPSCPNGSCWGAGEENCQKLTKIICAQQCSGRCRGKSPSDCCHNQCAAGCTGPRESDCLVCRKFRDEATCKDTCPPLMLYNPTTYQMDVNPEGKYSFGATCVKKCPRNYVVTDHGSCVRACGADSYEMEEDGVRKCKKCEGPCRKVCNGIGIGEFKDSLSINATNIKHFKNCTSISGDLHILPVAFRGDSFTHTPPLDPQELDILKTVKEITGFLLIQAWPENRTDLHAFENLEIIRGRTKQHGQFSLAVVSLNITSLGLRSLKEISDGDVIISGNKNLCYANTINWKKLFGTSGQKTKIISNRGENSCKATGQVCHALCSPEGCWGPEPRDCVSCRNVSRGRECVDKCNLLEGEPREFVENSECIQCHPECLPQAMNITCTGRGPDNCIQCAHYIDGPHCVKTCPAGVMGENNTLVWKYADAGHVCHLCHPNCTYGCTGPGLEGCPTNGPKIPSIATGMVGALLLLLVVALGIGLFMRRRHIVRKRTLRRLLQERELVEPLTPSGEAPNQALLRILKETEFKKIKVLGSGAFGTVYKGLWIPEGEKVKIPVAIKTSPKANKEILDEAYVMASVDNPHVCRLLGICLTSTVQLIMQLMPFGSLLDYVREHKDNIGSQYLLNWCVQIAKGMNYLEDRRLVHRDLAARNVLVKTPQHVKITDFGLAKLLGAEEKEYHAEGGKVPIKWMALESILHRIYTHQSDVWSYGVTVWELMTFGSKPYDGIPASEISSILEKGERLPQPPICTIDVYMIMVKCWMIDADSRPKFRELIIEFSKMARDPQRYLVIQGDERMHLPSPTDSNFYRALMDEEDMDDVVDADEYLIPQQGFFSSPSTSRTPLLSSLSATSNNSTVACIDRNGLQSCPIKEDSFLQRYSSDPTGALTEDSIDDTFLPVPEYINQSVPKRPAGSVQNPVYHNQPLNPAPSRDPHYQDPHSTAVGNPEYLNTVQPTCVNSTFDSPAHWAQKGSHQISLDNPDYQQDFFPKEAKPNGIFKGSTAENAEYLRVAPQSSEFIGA
BaF3 cell lines stably transfected with kinase EGFR Del/T790M, sequence (P00533 with tags, fused parts or gaps DEL746-750/T790M, form open): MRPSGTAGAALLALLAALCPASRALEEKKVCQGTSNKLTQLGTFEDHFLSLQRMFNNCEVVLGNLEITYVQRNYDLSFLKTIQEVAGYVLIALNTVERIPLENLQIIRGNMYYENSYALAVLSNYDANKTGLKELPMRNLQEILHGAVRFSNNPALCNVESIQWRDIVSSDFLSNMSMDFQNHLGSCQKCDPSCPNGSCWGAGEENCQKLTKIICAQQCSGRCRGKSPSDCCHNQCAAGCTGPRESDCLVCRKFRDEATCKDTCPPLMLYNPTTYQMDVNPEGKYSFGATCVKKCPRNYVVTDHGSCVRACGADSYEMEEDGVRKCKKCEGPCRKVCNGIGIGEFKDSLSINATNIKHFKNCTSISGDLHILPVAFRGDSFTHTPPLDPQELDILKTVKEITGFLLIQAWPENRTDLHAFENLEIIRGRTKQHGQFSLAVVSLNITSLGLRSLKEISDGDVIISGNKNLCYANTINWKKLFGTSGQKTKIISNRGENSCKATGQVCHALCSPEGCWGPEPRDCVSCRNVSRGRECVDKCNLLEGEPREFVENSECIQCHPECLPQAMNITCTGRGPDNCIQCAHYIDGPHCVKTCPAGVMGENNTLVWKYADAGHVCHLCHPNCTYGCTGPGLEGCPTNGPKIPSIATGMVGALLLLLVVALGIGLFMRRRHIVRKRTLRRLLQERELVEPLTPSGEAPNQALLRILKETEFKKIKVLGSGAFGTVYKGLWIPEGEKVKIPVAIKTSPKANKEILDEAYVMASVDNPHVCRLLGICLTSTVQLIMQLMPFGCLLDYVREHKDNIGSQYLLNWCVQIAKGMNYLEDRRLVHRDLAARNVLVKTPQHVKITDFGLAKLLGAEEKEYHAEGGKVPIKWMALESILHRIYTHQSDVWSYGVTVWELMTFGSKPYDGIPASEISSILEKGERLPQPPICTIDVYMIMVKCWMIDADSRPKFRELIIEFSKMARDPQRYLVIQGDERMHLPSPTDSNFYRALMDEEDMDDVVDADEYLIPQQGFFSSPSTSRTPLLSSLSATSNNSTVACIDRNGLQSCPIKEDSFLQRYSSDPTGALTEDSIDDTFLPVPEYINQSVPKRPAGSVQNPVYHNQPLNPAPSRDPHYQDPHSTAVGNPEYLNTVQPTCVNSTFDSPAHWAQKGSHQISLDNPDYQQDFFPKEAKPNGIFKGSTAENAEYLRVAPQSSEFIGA
BaF3 cell lines stably transfected with kinase EGFR L858R/T790M/C797S, sequence (P00533 whole entry T790M/C797S/L858R): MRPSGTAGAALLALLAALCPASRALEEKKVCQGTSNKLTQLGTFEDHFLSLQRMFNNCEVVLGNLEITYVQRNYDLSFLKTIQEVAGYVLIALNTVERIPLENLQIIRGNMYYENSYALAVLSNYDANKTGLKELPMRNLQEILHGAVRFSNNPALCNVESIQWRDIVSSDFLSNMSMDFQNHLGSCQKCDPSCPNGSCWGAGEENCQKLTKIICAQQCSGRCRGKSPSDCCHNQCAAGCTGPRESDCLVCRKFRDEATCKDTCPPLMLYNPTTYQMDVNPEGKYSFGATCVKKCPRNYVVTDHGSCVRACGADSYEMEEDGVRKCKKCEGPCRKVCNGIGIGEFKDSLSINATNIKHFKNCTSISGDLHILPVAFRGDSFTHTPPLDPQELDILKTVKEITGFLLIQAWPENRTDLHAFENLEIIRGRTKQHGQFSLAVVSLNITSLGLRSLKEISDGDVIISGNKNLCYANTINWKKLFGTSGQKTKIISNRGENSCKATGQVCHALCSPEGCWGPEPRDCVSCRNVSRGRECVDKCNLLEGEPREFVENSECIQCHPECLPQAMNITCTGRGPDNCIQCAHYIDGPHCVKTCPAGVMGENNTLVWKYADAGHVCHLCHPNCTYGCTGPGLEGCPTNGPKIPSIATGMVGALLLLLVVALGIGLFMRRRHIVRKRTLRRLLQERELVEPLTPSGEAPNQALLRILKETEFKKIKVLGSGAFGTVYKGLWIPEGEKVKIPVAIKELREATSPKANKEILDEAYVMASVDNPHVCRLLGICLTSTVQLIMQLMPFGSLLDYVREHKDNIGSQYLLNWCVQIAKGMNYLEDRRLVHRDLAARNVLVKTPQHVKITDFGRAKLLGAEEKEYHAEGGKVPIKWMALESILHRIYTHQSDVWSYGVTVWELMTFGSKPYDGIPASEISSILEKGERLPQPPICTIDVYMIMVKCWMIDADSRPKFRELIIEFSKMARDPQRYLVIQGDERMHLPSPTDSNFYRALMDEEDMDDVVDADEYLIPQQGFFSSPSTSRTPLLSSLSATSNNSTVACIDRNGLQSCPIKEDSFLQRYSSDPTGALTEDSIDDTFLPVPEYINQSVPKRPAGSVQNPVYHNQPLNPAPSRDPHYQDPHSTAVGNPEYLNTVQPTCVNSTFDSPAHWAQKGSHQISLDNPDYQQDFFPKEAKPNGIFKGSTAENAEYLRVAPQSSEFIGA
BaF3 cell lines stably transfected with kinase EGFR L858R, sequence (P00533 whole entry L858R): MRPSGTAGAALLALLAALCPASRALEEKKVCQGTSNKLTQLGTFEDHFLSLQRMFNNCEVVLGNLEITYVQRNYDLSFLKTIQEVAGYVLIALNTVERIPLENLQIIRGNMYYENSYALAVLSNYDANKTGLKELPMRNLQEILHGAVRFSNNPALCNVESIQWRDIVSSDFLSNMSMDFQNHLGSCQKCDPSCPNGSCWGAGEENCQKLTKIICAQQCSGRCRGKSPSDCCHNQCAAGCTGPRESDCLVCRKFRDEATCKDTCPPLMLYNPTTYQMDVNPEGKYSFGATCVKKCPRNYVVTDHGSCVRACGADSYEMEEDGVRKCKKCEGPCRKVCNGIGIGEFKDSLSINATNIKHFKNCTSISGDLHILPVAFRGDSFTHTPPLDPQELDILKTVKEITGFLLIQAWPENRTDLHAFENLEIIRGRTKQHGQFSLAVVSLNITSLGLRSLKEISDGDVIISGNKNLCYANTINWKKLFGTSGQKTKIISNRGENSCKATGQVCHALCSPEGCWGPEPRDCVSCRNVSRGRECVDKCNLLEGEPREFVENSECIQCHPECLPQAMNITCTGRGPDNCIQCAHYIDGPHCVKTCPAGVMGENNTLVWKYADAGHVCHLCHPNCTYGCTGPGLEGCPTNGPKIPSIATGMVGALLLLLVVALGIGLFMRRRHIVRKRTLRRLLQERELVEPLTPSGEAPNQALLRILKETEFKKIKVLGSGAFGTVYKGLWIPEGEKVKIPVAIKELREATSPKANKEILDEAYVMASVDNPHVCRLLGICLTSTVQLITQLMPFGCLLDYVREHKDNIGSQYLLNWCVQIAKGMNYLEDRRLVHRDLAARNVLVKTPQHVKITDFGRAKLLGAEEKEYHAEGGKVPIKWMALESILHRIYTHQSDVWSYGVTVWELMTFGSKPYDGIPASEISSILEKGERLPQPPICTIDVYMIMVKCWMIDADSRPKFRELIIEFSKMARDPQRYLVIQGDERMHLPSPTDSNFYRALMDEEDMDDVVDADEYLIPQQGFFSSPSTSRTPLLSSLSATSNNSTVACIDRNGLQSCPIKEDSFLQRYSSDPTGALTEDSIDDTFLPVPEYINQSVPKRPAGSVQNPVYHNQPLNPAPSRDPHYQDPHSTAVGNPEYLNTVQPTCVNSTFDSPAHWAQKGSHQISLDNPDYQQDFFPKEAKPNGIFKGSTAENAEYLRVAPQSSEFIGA

SMILES | GI50 [1] [nM] | GI50 [2] [nM] | GI50 [3] [nM] | GI50 [4] [nM] | GI50 [5] [nM] | GI50 [6] [nM]
C=Cc1cnc(Nc2cc3c(cc2F)CCN(C)C3)nc1Nc1ccc2nccnc2c1N(C)S(C)(=O)=O [II-74] | 50 to 500 | 50 to 500 | ≤ 50 | 50 to 500 | 50 to 500 | 50 to 500
C=Cc1cnc(Nc2cnn(C)c2)nc1Nc1ccc2nccnc2c1N(C)S(C)(=O)=O [II-65] | 50 to 500 | 50 to 500 | 50 to 500 | 50 to 500 | 50 to 500 | 50 to 500
C=Cc1cnc(Nc2cccc(C3CCN(C)CC3)c2)nc1Nc1ccc2nccnc2c1P(C)(C)=O [Compound I-22] | 50 to 500 | 50 to 500 | 50 to 500 | ≤ 50 | 50 to 500 | 500 to 2500
C=Cc1cnc(Nc2cc(C)c(N3CCC(N4CCN(C)CC4)CC3)cc2OC)nc1Nc1ccc2nccnc2c1P(C)(C)=O [Compound I-9] | ≤ 50 | ≤ 50 | ≤ 50 | ≤ 50 | ≤ 50 | ≤ 50
C=Cc1cnc(Nc2ccc3c(c2)CCN(C)CC3)nc1Nc1ccc2nccnc2c1P(C)(C)=O [Compound I-24] | 50 to 500 | 50 to 500 | ≤ 50 | 50 to 500 | 50 to 500 | 50 to 500
C=Cc1cnc(Nc2cc3c(cc2F)CCN(C)C3)nc1Nc1ccc2nccnc2c1P(C)(C)=O [Compound I-23] | 50 to 500 | 50 to 500 | 50 to 500 | 50 to 500 | 50 to 500 | 500 to 2500
C=Cc1cnc(Nc2ccc(N3CCC(N4CCN(C)CC4)CC3)c(CC)c2)nc1Nc1ccc2nccnc2c1S(C)(=O)=O [III-14] | 50 to 500 | 50 to 500 | 50 to 500 | 50 to 500 | 50 to 500 | 500 to 2500
C=Cc1cnc(Nc2ccc(N3CCC(N4CCN(C)CC4)CC3)c(CC)c2)nc1Nc1ccc2nccnc2c1P(C)(C)=O [Compound I-18] | ≤ 50 | 50 to 500 | ≤ 50 | 50 to 500 | 50 to 500 | ≤ 50
CCc1cc(Nc2ncc(C=C(C)C)c(Nc3ccc4nccnc4c3N(C)S(C)(=O)=O)n2)c(OC)cc1N1CCC(N2CCN(C)CC2)CC1 [II-26] | 500 to 2500 | 500 to 2500 | 50 to 500 | 500 to 2500 | ≤ 50 | 500 to 2500
C=Cc1cnc(Nc2ccc(N3CCC(N4CCN(C)CC4)CC3)c(F)c2F)nc1Nc1ccc2nccnc2c1NS(C)(=O)=O [II-45] | 500 to 2500 | 50 to 500 | 50 to 500 | 50 to 500 | 50 to 500 | 500 to 2500
C=Cc1cnc(Nc2cc(C)c(N3CCC(N4CCN(C)CC4)CC3)cc2OC)nc1Nc1ccc2nccnc2c1NS(=O)(=O)C(C)C [II-43] | 50 to 500 | 50 to 500 | 50 to 500 | 500 to 2500 | 50 to 500 | 50 to 500
C=Cc1cnc(Nc2cc3c(cc2OC(F)(F)F)CCN(C)C3)nc1Nc1ccc2nccnc2c1N(C)S(C)(=O)=O [II-76] | 50 to 500 | 500 to 2500 | 50 to 500 | 50 to 500 | 50 to 500 | 500 to 2500
C=Cc1cnc(Nc2ccc(N3CCC(N4CCN(C)CC4)CC3)c(CC)c2)nc1Nc1ccc2nccnc2c1NS(C)(=O)=O [II-38] | ≤ 50 | ≤ 50 | ≤ 50 | ≤ 50 | ≤ 50 | 50 to 500
C=Cc1cnc(Nc2cc(CC)c(N3CCC(N4CCN(C)CC4)CC3)cc2OC)nc1Nc1ccc2nccnc2c1N(C)S(=O)(=O)C1CC1 [II-11] | 50 to 500 | ≤ 50 | 50 to 500 | 50 to 500 | ≤ 50 | 50 to 500
C=Cc1cnc(Nc2cc(C(C)C)c(N3CCC(N4CCN(C)CC4)CC3)cc2OC)nc1Nc1ccc2nccnc2c1P(C)(C)=O [Compound I-16] | 50 to 500 | 50 to 500 | 50 to 500 | 50 to 500 | 50 to 500 | 50 to 500
C=Cc1cnc(Nc2ccn(C(C)C)n2)nc1Nc1ccc2nccnc2c1N(C)S(C)(=O)=O [II-61] | 50 to 500 | 500 to 2500 | ≤ 50 | 500 to 2500 | 500 to 2500 | 50 to 500
C=C(C)c1cnc(Nc2ccc(N3CCC(N4CCN(C)CC4)CC3)nc2OC)nc1Nc1ccc2nccnc2c1P(C)(C)=O [Compound I-19] | 50 to 500 | 50 to 500 | 50 to 500 | ≤ 50 | ≤ 50 | 500 to 2500

SMILES | GI50 [1] [nM] | GI50 [2] [nM] | GI50 [3] [nM] | GI50 [4] [nM] | GI50 [5] [nM] | GI50 [6] [nM]
C=Cc1cnc(Nc2cc(CC)c(N3CCN(C)CC3)cc2OC)nc1Nc1ccc2nccnc2c1S(C)(=O)=O [III-4] | 500 to 2500 | 500 to 2500 | 500 to 2500 | 50 to 500 | 500 to 2500 | 500 to 2500
C=Cc1cnc(Nc2cnn(CC)c2)nc1Nc1ccc2nccnc2c1N(C)S(C)(=O)=O [II-66] | 500 to 2500 | 500 to 2500 | 500 to 2500 | 500 to 2500 | 500 to 2500 | 50 to 500
C=Cc1cnc(Nc2cc(C)c(N3CCC(N4CCN(C)CC4)CC3)cc2OC)nc1Nc1ccc2nccnc2c1S(=O)(=O)NC(C)C [IV-17] | 500 to 2500 | 50 to 500 | 50 to 500 | 50 to 500 | 500 to 2500 | 500 to 2500
C=Cc1cnc(Nc2cc(CC)c(N3CCC(N4CCN(C)CC4)CC3)nc2OC)nc1Nc1ccc2nccnc2c1S(C)(=O)=O [III-10] | 500 to 2500 | 500 to 2500 | 500 to 2500 | 50 to 500 | 500 to 2500 | 500 to 2500
C=Cc1cnc(Nc2cc(CC)c(N3CCC(N4CCN(C)CC4)CC3)cc2OC(F)(F)F)nc1Nc1ccc2nccnc2c1S(=O)(=O)NC [IV-5] | 500 to 2500 | 50 to 500 | 500 to 2500 | 50 to 500 | 500 to 2500 | 500 to 2500
C=C(C)c1cnc(Nc2cc[nH]n2)nc1Nc1ccc2nccnc2c1N(C)S(C)(=O)=O [II-69] | 50 to 500 | 500 to 2500 | 50 to 500 | 50 to 500 | 50 to 500 | 500 to 2500
C=Cc1cnc(Nc2cc(C(C)C)c(N3CCC(N4CCN(C)CC4)CC3)cc2OC)nc1Nc1ccc2nccnc2c1NS(C)(=O)=O [II-35] | 50 to 500 | 50 to 500 | 50 to 500 | 500 to 2500 | 50 to 500 | 500 to 2500
C=Cc1cnc(Nc2cc(C3CC3)c(N3CCC(N4CCN(C)CC4)CC3)cc2OC)nc1Nc1ccc2nccnc2c1S(C)(=O)=O [III-12] | 50 to 500 | 50 to 500 | 500 to 2500 | 50 to 500 | 50 to 500 | 500 to 2500
C=Cc1cnc(Nc2ccc3c(c2)C(C)CN(C)CC3)nc1Nc1ccc2nccnc2c1N(C)S(C)(=O)=O (stereo not drawn) [II-78] | ≤ 50 | 50 to 500 | ≤ 50 | ≤ 50 | ≤ 50 | 50 to 500
C=Cc1cnc(Nc2ccc(N3CCC(N4CCN(C)CC4)CC3)cc2OC)nc1Nc1ccc2nccnc2c1S(=O)(=O)C(C)C [III-18] | 500 to 2500 | 500 to 2500 | 50 to 500 | 50 to 500 | 500 to 2500 | 500 to 2500
C=Cc1cnc(Nc2cc(C(C)C)c(N3CCC(N4CCN(C)CC4)CC3)cc2OC)nc1Nc1ccc2nccnc2c1S(C)(=O)=O [III-11] | 500 to 2500 | 500 to 2500 | 500 to 2500 | 50 to 500 | 500 to 2500 | 500 to 2500
C=Cc1cnc(Nc2cc(CC)n(C)n2)nc1Nc1ccc2nccnc2c1N(C)S(C)(=O)=O [II-63] | 50 to 500 | 50 to 500 | 500 to 2500 | 50 to 500 | 50 to 500 | 50 to 500
C=Cc1cnc(Nc2cc(CC)c(N3CCC(N4CCN(C)CC4)CC3)nc2OC)nc1Nc1ccc2nccnc2c1P(C)(C)=O [Compound I-5] | ≤ 50 | ≤ 50 | ≤ 50 | ≤ 50 | ≤ 50 | ≤ 50
C=Cc1cnc(Nc2cc(C)c(N3CCC(N4CCN(C)CC4)CC3)cc2OC)nc1Nc1ccc2nccnc2c1S(=O)(=O)NC [IV-2] | 50 to 500 | 50 to 500 | 50 to 500 | 50 to 500 | 50 to 500 | 50 to 500
C=Cc1cnc(Nc2ccc(N3CCC(N4CCN(C)CC4)CC3)cc2OC)nc1Nc1ccc2nccnc2c1N(C)S(C)(=O)=O [II-16] | 50 to 500 | 50 to 500 | 500 to 2500 | 500 to 2500 | 50 to 500 | 50 to 500
C=Cc1cnc(Nc2cc(C)c(N3CCC(N4CCN(C)CC4)CC3)cc2OC)nc1Nc1ccc2nccnc2c1S(C)(=O)=O [III-9] | 500 to 2500 | 500 to 2500 | 500 to 2500 | 50 to 500 | 500 to 2500 | 500 to 2500
